In patent US20240024488A1, “COMPOUNDS AND USES THEREOF” (Foghorn Therapeutics Inc., priority 2020, published 2024):

Key:
HiBit-BRM fusion protein = target: T1, HiBit-BRM fusion protein (Homo sapiens, UniProt P51531); test: HiBiT-BRM cell-based degradation assay (Nano-Glo HiBiT Lytic Detection, 24 h); details: HeLa cell line expressing HiBiT-BRM; for DC50: read-out: BRM HiBit Degradation IC50
T1 construct: expressed in transfected cells
Description: (§1) Procedure: A stable HeLa cell line expressing HiBiT-BRM was generated. On day 0, 5000 cells were seeded in 40 μL of media into each well of 384-well cell culture plates. On day 1, cells were treated with 120 nL DMSO or 120 nL of 3-fold serially DMSO-diluted compounds (10 points in duplicate with 30 μM as final top dose). Subsequently plates were incubated for 24 h in a standard tissue culture incubator and equilibrated at room temperature for 15 minutes. Nano-Glo HiBiT Lytic Detection System (Promega N3050) reagent was freshly prepared and 20 ul was added to each well. Upon addition of this LgBit-containing reagent, the HiBiT and LgBiT proteins associate to form the luminescent NanoBiT luciferase. The plates were shaken for 10 minutes at room temperature and the bioluminescence read using an EnVision plate reader (PerkinElmer).
(§2) The degradation % was calculated using the following formula: % degradation=100%−100%×(LumSample−LumLC)/(LumHC−LumLC). DMSO treated cells are employed as High Control (HC) and 2 μM of a known BRM/BRG1 degrader standard treated cells are employed as Low Control (LC).

[1] = target: T2, HiBit-BRG1 fusion protein (Homo sapiens, UniProt P51532); test: HiBiT-BRG1 cell-based degradation assay (Nano-Glo HiBiT Lytic Detection, 24 h); details: HeLa cell line expressing HiBit-BRG1 and LgBit; for Dmax: read-out: BRG1 HiBit Degradation Maximum (%); for DC50: read-out: BRMG1 HiBit Degradation IC50
T2 construct: expressed in transfected cells
Description: as §1, with “On day 1, cells were treated with 120 nL DMSO or 120 nL of 3-fold serially DMSO-diluted compounds (10 points in duplicate with 30 μM as final top dose).” left out
For measurement of BRG1 degradation, a stable HeLa cell line expressing HiBit-BRG1 and LgBit was generated. The same protocol as above was then followed.
as §2

T2 sequence (P51532 whole entry, the tested form may be a part): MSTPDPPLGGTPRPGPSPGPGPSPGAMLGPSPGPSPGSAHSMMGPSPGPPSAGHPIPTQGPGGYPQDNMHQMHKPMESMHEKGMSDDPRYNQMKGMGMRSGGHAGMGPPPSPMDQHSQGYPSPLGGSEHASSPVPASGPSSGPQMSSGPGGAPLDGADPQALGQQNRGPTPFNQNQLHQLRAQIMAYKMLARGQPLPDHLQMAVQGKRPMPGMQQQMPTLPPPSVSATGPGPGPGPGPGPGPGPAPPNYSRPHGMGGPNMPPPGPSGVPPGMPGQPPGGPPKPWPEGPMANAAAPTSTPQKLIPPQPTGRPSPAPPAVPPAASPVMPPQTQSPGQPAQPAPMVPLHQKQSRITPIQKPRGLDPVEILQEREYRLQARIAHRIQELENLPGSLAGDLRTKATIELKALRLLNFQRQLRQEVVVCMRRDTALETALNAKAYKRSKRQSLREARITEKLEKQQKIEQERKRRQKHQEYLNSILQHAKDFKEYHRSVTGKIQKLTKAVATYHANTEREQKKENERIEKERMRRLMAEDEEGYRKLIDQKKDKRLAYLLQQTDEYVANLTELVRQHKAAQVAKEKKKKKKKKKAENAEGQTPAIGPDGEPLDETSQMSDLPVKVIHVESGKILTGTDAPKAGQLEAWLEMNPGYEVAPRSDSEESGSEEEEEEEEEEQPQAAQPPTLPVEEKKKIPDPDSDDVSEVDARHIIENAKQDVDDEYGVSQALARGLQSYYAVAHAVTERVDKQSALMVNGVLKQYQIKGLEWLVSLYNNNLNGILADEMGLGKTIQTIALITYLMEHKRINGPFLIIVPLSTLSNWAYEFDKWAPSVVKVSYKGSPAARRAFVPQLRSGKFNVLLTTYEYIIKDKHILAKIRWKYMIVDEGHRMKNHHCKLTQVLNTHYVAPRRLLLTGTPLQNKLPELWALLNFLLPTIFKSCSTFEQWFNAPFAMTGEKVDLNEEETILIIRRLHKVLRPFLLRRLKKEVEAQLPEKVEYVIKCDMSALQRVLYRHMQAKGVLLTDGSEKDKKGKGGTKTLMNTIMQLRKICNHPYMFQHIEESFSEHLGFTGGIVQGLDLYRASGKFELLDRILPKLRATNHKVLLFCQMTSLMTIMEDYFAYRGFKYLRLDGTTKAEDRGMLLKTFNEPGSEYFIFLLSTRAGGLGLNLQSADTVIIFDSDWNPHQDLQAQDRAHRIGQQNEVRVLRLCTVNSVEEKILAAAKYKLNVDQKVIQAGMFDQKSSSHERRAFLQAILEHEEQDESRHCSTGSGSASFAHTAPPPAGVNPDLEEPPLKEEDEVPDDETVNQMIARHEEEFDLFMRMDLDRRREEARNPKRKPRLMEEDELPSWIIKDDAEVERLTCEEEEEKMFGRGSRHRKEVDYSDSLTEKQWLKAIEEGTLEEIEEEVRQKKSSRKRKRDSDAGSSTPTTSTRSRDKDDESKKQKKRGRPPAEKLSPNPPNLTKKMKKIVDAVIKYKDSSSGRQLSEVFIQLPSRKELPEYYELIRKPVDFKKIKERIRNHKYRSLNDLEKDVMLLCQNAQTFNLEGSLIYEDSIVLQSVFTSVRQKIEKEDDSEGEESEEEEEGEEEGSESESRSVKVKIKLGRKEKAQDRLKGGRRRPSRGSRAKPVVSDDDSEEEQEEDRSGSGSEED
T1 sequence (P51531 whole entry, the tested form may be a part): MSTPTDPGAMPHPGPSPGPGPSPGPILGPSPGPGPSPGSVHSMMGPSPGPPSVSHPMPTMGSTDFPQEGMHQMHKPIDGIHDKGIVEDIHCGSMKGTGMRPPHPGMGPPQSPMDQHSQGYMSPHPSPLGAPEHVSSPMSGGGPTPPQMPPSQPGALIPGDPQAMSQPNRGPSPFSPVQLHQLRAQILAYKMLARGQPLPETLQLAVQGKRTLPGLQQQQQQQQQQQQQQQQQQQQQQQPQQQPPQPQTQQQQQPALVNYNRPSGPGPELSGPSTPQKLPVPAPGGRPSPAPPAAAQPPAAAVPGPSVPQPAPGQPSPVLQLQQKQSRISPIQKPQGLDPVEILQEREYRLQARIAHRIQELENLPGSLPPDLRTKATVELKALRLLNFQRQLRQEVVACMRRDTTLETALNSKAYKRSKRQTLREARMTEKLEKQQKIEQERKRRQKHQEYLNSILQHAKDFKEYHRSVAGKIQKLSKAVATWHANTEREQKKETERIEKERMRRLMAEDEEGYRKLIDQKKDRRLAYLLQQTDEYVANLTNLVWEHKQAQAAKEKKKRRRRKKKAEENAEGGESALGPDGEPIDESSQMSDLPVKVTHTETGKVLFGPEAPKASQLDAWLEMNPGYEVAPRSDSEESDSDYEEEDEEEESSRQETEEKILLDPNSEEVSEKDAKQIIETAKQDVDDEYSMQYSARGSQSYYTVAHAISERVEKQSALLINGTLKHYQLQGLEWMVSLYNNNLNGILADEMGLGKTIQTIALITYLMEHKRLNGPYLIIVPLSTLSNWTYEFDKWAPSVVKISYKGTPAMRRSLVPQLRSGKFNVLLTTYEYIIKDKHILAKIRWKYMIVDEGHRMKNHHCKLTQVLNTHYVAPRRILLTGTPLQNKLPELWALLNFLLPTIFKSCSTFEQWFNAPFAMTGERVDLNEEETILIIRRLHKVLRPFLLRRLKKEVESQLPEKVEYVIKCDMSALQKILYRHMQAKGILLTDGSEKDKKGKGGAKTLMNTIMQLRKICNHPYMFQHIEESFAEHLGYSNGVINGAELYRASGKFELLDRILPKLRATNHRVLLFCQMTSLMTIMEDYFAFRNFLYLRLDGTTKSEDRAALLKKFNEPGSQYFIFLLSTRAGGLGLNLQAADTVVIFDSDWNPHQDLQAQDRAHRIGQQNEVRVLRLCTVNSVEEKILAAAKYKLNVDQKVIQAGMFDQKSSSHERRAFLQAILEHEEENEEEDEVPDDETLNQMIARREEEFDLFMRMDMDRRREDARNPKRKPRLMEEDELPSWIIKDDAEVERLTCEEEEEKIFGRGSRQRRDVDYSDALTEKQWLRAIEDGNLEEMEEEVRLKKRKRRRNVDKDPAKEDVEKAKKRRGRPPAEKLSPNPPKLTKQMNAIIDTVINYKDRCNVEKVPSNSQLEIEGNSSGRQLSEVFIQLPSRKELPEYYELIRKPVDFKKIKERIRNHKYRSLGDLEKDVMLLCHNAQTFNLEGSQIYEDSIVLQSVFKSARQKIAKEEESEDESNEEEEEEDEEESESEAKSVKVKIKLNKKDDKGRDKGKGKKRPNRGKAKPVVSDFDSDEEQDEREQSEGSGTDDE

Row | SMILES | DC50 (HiBit-BRM fusion protein) [µM] | Dmax [1] [%] | DC50 [1] [µM] | BRM HiBit Degradation Maximum (%) (HiBit-BRM fusion protein)
1 | Cc1ncsc1-c1ccc([C@H](C)NC(=O)[C@@H]2C[C@@H](O)CN2C(=O)[C@@H](c2cc(C3CCN(C(=O)[C@H]4C[C@]5(Cc6cc(-c7ccccc7O)nnc6N5)C4)CC3)no2)C(C)C)cc1 (racemic) [Compound 75, (2S,4R)-4-hydroxy-1-((R)-2-(3-(1-((1S,3r)-3′-(2-hydroxyphenyl)-5′,7′-dihydrospiro[cyclobutane-1,6′-pyrrolo[2,3-c]pyridazine]-3-carbonyl)piperidin-4-yl)isoxazol-5-yl)-3-methylbutanoyl)-N-((S)-1-(4-(4-methylthiazol-5-yl)phenyl)ethyl)pyrrolidine-2-carboxamide] | > 0.01 | > 50 | > 0.1 | A (“A” indicates maximum degradation ≥ 75%)
2 | Cc1ncsc1-c1ccc(CNC(=O)[C@@H]2C[C@@H](O)CN2C(=O)[C@@H](NC(=O)CCCCCCCCCCCCCCCC(=O)N2CC(c3cc4cc(-c5ccccc5O)nnc4[nH]3)C2)C(C)(C)C)cc1 [Compound 22, (2S,4R)-4-hydroxy-1-((S)-2-(17-(3-(3-(2-hydroxyphenyl)-7H-pyrrolo[2,3-c]pyridazin-6-yl)azetidin-1-yl)-17-oxoheptadecanamido)-3,3-dimethylbutanoyl)-N-(4-(4-methylthiazol-5-yl)benzyl)pyrrolidine-2-carboxamide] | – | < 50 | – | C (“C” indicates maximum degradation < 50%)
3 | Cc1ncsc1-c1ccc([C@H](C)NC(=O)[C@@H]2C[C@@H](O)CN2C(=O)C(c2cc(OCCN[C@]3(C(=O)O)CCc4[nH]c5nnc(-c6ccccc6O)cc5c4C3)no2)C(C)C)cc1 (single isomer, unassigned) [Compound 91] | – | < 50 | – | C (“C” indicates maximum degradation < 50%)
4 | Cc1ncsc1-c1ccc(CNC(=O)[C@@H]2C[C@@H](O)CN2C(=O)[C@@H](NC(=O)CCCCCCCNCCC(=O)N2CC(c3c[nH]c4nnc(-c5ccccc5O)cc34)C2)C(C)(C)C)cc1 (racemic) [Compound 56, (2S,4R)-4-hydroxy-1-((S)-2-(8-((3-(3-(3-(2-hydroxyphenyl)-7H-pyrrolo[2,3-c]pyridazin-5-yl)azetidin-1-yl)-3-oxopropyl)amino)octanamido)-3,3-dimethylbutanoyl)-N-(4-(4-methylthiazol-5-yl)benzyl)pyrrolidine-2-carboxamide] | > 1 | < 50 | – | B (“B” indicates maximum degradation ≥ 50%)
5 | Cc1ncsc1-c1ccc([C@H](C)NC(=O)[C@@H]2C[C@@H](O)CN2C(=O)[C@@H](c2cc(OCCN3[C@@H]4CC[C@H]3CN(c3cc5cc(-c6ccccc6O)nnc5[nH]3)C4)no2)C(C)C)cc1 (racemic) [Compound 245, (2S,4R)-4-hydroxy-1-((2R)-2-(3-(2-(3-(3-(2-hydroxyphenyl)-7H-pyrrolo[2,3-c]pyridazin-6-yl)-3,8-diazabicyclo[3.2.1]octan-8-yl)ethoxy)isoxazol-5-yl)-3-methylbutanoyl)-N-((S)-1-(4-(4-methylthiazol-5-yl)phenyl)ethyl)pyrrolidine-2-carboxamide] | > 0.01 | > 75 | > 0.1 | A (“A” indicates maximum degradation ≥ 75%)

Further lines, with some results ahead:

Row | DC50 (HiBit-BRM fusion protein) [µM] | Dmax [1] [%] | DC50 [1] [µM] | SMILES | BRM HiBit Degradation Maximum (%) (HiBit-BRM fusion protein)
6 | > 0.1 | < 50 | – | Cc1ncsc1-c1ccc(CNC(=O)[C@@H]2C[C@@H](O)CN2C(=O)[C@@H](NC(=O)CCCCCNC(=O)[C@@H]2CCc3[nH]c4nnc(-c5ccccc5O)cc4c3C2)C(C)(C)C)cc1 (racemic) [Compound 195, (R)-N-(6-(((S)-1-((2S,4R)-4-hydroxy-2-((4-(4-methylthiazol-5-yl)benzyl)carbamoyl)pyrrolidin-1-yl)-3,3-dimethyl-1-oxobutan-2-yl)amino)-6-oxohexyl)-3-(2-hydroxyphenyl)-6,7,8,9-tetrahydro-5H-pyridazino[3,4-b]indole-6-carboxamide] | B (“B” indicates maximum degradation ≥ 50%)
7 | > 0.01 | < 50 | – | Cc1ncsc1-c1ccc([C@H](C)NC(=O)[C@@H]2C[C@@H](O)CN2C(=O)[C@@H](c2cc(OCCN3CCCC(c4cc5cc(-c6ccccc6O)nnc5[nH]4)C3)no2)C(C)C)cc1 (mixture of isomers) [Compound 286, (2S,4R)-4-hydroxy-1-((2R)-2-(3-(2-(3-(3-(2-hydroxyphenyl)-7H-pyrrolo[2,3-c]pyridazin-6-yl)piperidin-1-yl)ethoxy)isoxazol-5-yl)-3-methylbutanoyl)-N-((S)-1-(4-(4-methylthiazol-5-yl)phenyl)ethyl)pyrrolidine-2-carboxamide] | A (“A” indicates maximum degradation ≥ 75%)
8 | > 0.1 | < 50 | – | Cc1ncsc1-c1ccc([C@H](C)NC(=O)[C@@H]2C[C@@H](O)CN2C(=O)[C@@H](c2cc(OCCN3CC[C@H](c4c[nH]c5nnc(-c6ccccc6O)cc45)C3)no2)C(C)C)cc1 (racemic) [Compound 292, (2S,4R)-4-hydroxy-1-((R)-2-(3-(2-((R)-3-(3-(2-hydroxyphenyl)-7H-pyrrolo[2,3-c]pyridazin-5-yl)pyrrolidin-1-yl)ethoxy)isoxazol-5-yl)-3-methylbutanoyl)-N-((S)-1-(4-(4-methylthiazol-5-yl)phenyl)ethyl)pyrrolidine-2-carboxamide] | B (“B” indicates maximum degradation ≥ 50%)
9 | > 0.01 | > 50 | > 0.1 | Cc1ncsc1-c1ccc([C@H](C)NC(=O)[C@@H]2C[C@@H](O)CN2C(=O)[C@@H](c2cc(N3CCC(C(=O)N[C@H]4CCc5[nH]c6nnc(-c7ccccc7O)cc6c5C4)CC3)no2)C(C)C)cc1 [Compound 144, 1-(5-((R)-1-((2S,4R)-4-hydroxy-2-(((S)-1-(4-(4-methylthiazol-5-yl)phenyl)ethyl)carbamoyl)pyrrolidin-1-yl)-3-methyl-1-oxobutan-2-yl)isoxazol-3-yl)-N-((S)-3-(2-hydroxyphenyl)-6,7,8,9-tetrahydro-5H-pyridazino[3,4-b]indol-6-yl)piperidine-4-carboxamide] | A (“A” indicates maximum degradation ≥ 75%)
10 | – | < 50 | – | Cc1ncsc1-c1ccc([C@H](C)NC(=O)[C@@H]2C[C@@H](O)CN2C(=O)[C@@H](c2cc(OCCN3CCC[C@H]3c3c[nH]c4nnc(-c5ccccc5O)cc34)no2)C(C)C)cc1 (single isomer, unassigned) [Compound 227] | C (“C” indicates maximum degradation < 50%)
11 | > 0.01 | > 75 | > 0.01 | Cc1ncsc1-c1ccc([C@H](C)NC(=O)[C@@H]2C[C@@H](O)CN2C(=O)[C@@H](c2cc(N3CCC(CN(C)[C@H]4CCc5[nH]c6nnc(-c7ccccc7O)cc6c5C4)CC3)no2)C(C)C)cc1 [Compound 107, (2S,4R)-4-hydroxy-1-((R)-2-(3-(4-((((S)-3-(2-hydroxyphenyl)-6,7,8,9-tetrahydro-5H-pyridazino[3,4-b]indol-6-yl)(methyl)amino)methyl)piperidin-1-yl)isoxazol-5-yl)-3-methylbutanoyl)-N-((S)-1-(4-(4-methylthiazol-5-yl)phenyl)ethyl)pyrrolidine-2-carboxamide] | A (“A” indicates maximum degradation ≥ 75%)
